The results in this text go back to PubChem BioAssay AID449764 (Southern Research Specialized Biocontainment Screening …, 2010).

In the assay the test system is Mycobacterium tuberculosis H37Rv growth inhibition, no glycerol. Put plainly: Confirmatory growth inhibition assay, Mycobacterium tuberculosis H37Rv, absence of glycerol (AID 449764).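 On all read-outs here: growth read after 7 days of incubation.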 To be noted: for IC90: measured here: IC90 growth inhibition.

Consider `CCOC(=O)CSC1=C(C#N)C(c2ccc(C)cc2)C2=C(CCCC2=O)N1` (stereo not given), for which the IC50 – broadly, the concentration at which inhibition is half-maximal – was 46.6 µM and the IC90 (in general, the point of the concentration-response curve where the effect stands at 90%) was greater than 100 µM. On the same counts, the results for `C/C(=C\C(=S)Nc1ccccc1)Nc1ccc2ccccc2c1` are 37.8 µM and 50.8 µM. For `Cc1cc2c(cc1C)CSC(c1c(O)ccc3ccccc13)SC2`, in that order: 61.2 µM and greater than 100 µM.

`Cc1onc(-c2ccccc2Cl)c1C(=O)Oc1cccc2cccnc12`: the IC50 was 3.38 µM and the IC90 was 3.98 µM. On the same counts, the results for `Cc1cccc(C2=N/C(=C\c3cccs3)C(=O)O2)c1` are 7.65 µM and greater than 100 µM. On the same counts, the results for `Nc1nc(CN2CCN(c3ccccc3F)CC2)nc(N2CCCc3ccccc32)n1` are 12 µM and 24.2 µM. As to `NC1=NC2(CCC(c3ccccc3)CC2)n2c(nc3ccccc32)N1` (stereo not given), the IC50 was 32.5 µM and the 90% effect concentration (IC90) worked out at 43.7 µM. On the same counts, the results for `CCOC(=O)c1c(NC(=O)CSc2nc3ccc(OC)cc3[nH]2)sc2c1CC(C)(C)NC2(C)C` are 39.7 µM and 53.7 µM. On the same counts, the results for `CN(Cc1ccco1)c1ncnc2ccc(-c3ccc4c(ccn4C)c3)cc12` are 40.9 µM and 59.4 µM. On the same counts, the results for `Cn1nc(-c2ccccc2F)c2cc(C(=O)Nc3ccc4c(c3)OCCO4)sc21` are 41.7 µM and greater than 100 µM.

For the compound `COc1ccc(-c2cc(C3CCN(Cc4cccc(C(F)(F)F)c4)CC3)[nH]n2)cc1`, the IC50 is 13.3 µM and the IC90 was 24.9 µM. For `COc1cc(/C=C/C(=O)c2c(O)n(CCc3ccccc3)c(=O)[nH]c2=O)ccc1O`, in that order: 14.3 µM and 21.8 µM. On the same counts, the results for `O=C(CSc1nc2ccccc2nc1N1CCOCC1)N1CCN(c2ccccc2)CC1` are 11.8 µM and 14 µM. In turn, `O=C1NN(c2ccc(Br)cc2)C(=O)/C1=C\c1ccc(O)cc1O` yielded an IC90 greater than 100 µM. For the compound `COc1ccc(CN2CCCC(C(=O)c3ccc(SC)cc3)C2)cc1Cn1cccn1` (stereo not given), the IC50 was 25.2 µM and the IC90 amounted to 28.2 µM.

`COc1ccc(C(CCNCc2ccc(OC(C)C)cc2)C(C)C)cc1` (stereo not given): the IC50 is 23.8 µM and the IC90 was found to be 32.4 µM. In turn, `CCCCNc1nc(N(C)c2ccccc2)nc(-n2ccnc2)n1` returned an IC90 greater than 100 µM. As for `CCOC(=O)CSc1nnc(NC(=O)c2ccc3c(c2)OCO3)s1`, the IC50 is 11.4 µM and the IC90 worked out at 20.2 µM. For the compound `CCOC(=O)c1cc(-c2csc(Nc3c(C)cc(C)cc3C)n2)on1`, the IC50 is 1.09 µM and the IC90 turned out to be 1.62 µM. For `O=c1/c(=C\c2ccc(O)cc2)sc2n1C(c1ccccc1)C(c1ccccc1)=NN=2` (stereo not given), in that order: 41.1 µM and 66 µM. For `O=c1c2c(nc3nc(NCc4ccc(Cl)cc4)[nH]n13)CCC2`, in that order: 9.12 µM and 14.3 µM. On the same counts, the results for `CCc1ccc(N=Nc2ccc(O)c3[nH]cnc23)cc1` are 40.7 µM and greater than 100 µM. As to `CC1CCC(C(C)C)C(OC(=O)Cn2c(-c3ccc(F)cc3)[n+](C)c3ccccc32)C1` (stereo not given), the IC50 was 10.8 µM and the IC90 was determined as 14.4 µM. For `O=C(OCn1nnc2ccccc2c1=O)C1CCCCC1`, in that order: 5.88 µM and 6.69 µM.

In the case of `CCc1nnc(NC(=O)CN2CCN(c3nc(-c4ccccc4)cs3)CC2)s1`, the IC50 was 42.6 µM and the IC90 is 92.6 µM. For `c1ccc(-c2n[nH]c(-c3ccccn3)n2)cc1`, in that order: 20.5 µM and 27.5 µM. On the same counts, the results for `CCNc1nc(Nc2ccc(C)c(Cl)c2)c2cnn(C)c2n1` are 70 µM and greater than 100 µM.

Compound `CSc1ccc(NC(=O)Nc2cccn(Cc3ccccc3)c2=O)cc1` showed an IC90 greater than 100 µM. On to `CN1CCN(C2=Cc3ccc(Cl)cc3Sc3ccc(F)cc32)CC1`, for which the IC50 was 25.9 µM and the IC90 stood at 35.5 µM. With `CCOc1cc2c(cc1OCC)-n1cccc1C(c1ccc(C(C)C)cc1)NC2` (stereo not given), the IC50 was 20.2 µM and the IC90 was 28.7 µM. As for `CC(C)(C)C1CCc2sc(-c3nnc(CCl)o3)cc2C1` (stereo not given), the IC50 was 5.74 µM and the IC90 turned out to be 19.5 µM. On the same counts, the results for `COc1ccccc1N1CCN(/N=C/C(Cl)=C/c2ccccc2)CC1` are 89.6 µM and greater than 100 µM. For `CCc1ccc(/C=C2/C(=O)N(C)C(=S)N2CC(=O)OC)s1`, in that order: 4.81 µM and 6.97 µM. On the same counts, the results for `O=C(Nc1cccnc1Cl)c1cc(-c2ccco2)on1` are 38.4 µM and greater than 100 µM. With `Clc1ccc2c(c1)C(c1ccccc1Cl)=NCc1nnc(N3CCN(CCOc4ccccc4)CC3)n1-2`, the IC50 is 34.8 µM and the IC90 is 46.1 µM.

With `O=c1[nH]c(CSc2cccc[n+]2[O-])nc2ccccc12`, the half-inhibitory concentration (IC50) is 89.1 µM and the IC90 was 99.6 µM. For `CCN(CC)CCNC(=O)c1ccc(NC(=O)c2cn(-c3ccccc3)nc2-c2cccs2)cc1`, in that order: 24.4 µM and 27.6 µM. For the compound `N#Cc1c([N+](=O)[O-])cc([N+](=O)[O-])cc1S(=O)(=O)Cc1ccccc1`, the IC50 was 22.6 µM and the IC90 amounted to 25.9 µM. For `CCOC(=O)N/N=C(/C)c1ccc([N+](=O)[O-])o1`, the half-inhibitory concentration (IC50) is 43.1 µM and the IC90 is greater than 100 µM. Consider `CC(C)(C)C(=O)NC(=S)NNC(=O)c1sc2ccccc2c1Cl`, for which the IC50 was 43.9 µM and the IC90 was greater than 100 µM.

Consider `O=C(N/N=C\C=C\c1ccc([N+](=O)[O-])o1)c1cccs1`, for which the IC50 was 10.8 µM and the IC90 was determined as 15.1 µM. Consider `COc1ccc(-c2cc(C3CCN(C(=O)OC(C)(C)C)CC3)[nH]n2)cc1`, for which the IC50 was 38.7 µM and the concentration for an effect of 90% (IC90) turned out to be 53.7 µM.

In the case of `S=C(Nc1ccc(Cl)cc1)NC1CC2CCC(C1)N2Cc1ccccc1` (stereo not given), the IC50 was 63.1 µM and the IC90 was 95.6 µM. As for `O=C(c1ccccc1)c1ccc(OCCOCCN2CCN(Cc3ccccc3)CC2)cc1`, the IC50 was 24 µM and the IC90 worked out at 27.5 µM. On the same counts, the results for `COc1ccc(C2Oc3ccccc3C3=C2C(c2cccs2)n2ncnc2N3)cc1` (stereo not given) are 78.9 µM and greater than 100 µM.

Turning to `C=C(C)C(=O)OCC(O)COc1ccc(C(C)(C)c2ccc(OCC(O)COC(=O)C(=C)C)cc2)cc1` (stereo not given), the IC50 is 35.6 µM and the IC90 was 49.1 µM. For `C#C[C@]1(O)CC[C@H]2[C@@H]3CCc4cc(OC5CCCC5)ccc4[C@H]3CC[C@@]21C`, in that order: 36.6 µM and 54.7 µM. On the same counts, the results for `COc1ccc(C(CCN2CCCCC2)c2c(OC)cc(OC)c3c(-c4ccccc4)cc(=O)oc23)cc1` (stereo not given) are 18.9 µM and 26.8 µM.

Take `CC(O)CNc1nc2ccccc2n1-c1ncnc2sc3c(c12)CCC3` (stereo not given): the IC50 was 35.2 µM and the IC90 is 42.1 µM. For `CCOC(=O)COc1cc(O)c2c(=O)cc(-c3ccccc3)oc2c1`, the IC50 was 1.38 µM and the IC90 worked out at 2.03 µM. For `Cc1ccc(NC(=O)CSc2nc3ccccc3c(=O)n2CCCN2CCCCC2)cc1Cl`, in that order: 36.6 µM and 79.2 µM. As to `CCC1=C(OC(=O)N(CC)CC)N2C(=O)OC(=NCCc3c[nH]c4ccccc34)[C@]2(Cc2ccccc2)[C@H]2C1=CC[C@H]1C(=O)NC(=O)[C@H]12`, the IC50 is 30.6 µM and the IC90 came out at 45.7 µM. Consider `CCCOc1ccc2c(c1)C(=NN=C(N)N)c1cc(OCCC)ccc1-2`, for which the IC50 was 11.1 µM and the IC90 turned out to be 18.1 µM. As to `Nc1ccc2cc(Br)ccc2c1`, the IC50 was 54.1 µM and the IC90 was 81.6 µM. For `COC(=O)/C(=C1/Oc2cc(C)oc(=O)c2S1)C(F)(F)F`, in that order: 26 µM and greater than 100 µM. For `Cc1ccc(S(=O)(=O)NC(CC(C)C)C(=O)N2CCN(C/C=C/c3ccccc3)CC2)cc1` (stereo not given), in that order: 66.4 µM and 90.2 µM. For `CSCCC1NC(=O)N(CC(=O)N2N=C(c3ccc(Cl)cc3)CC2c2ccco2)C1=O` (stereo not given), in that order: 10.9 µM and 13.6 µM.

As for `Clc1ccc(Nc2ccc(-n3ccnc3)nn2)cc1Cl`, the IC50 was 21.9 µM and the IC90 was 24.8 µM. For `CCCCn1c(NCc2ccc3c(c2)OCO3)nc2ccccc21`, in that order: 23.5 µM and 25.9 µM. On the same counts, the results for `C/C(=C1/C(=O)N(c2ccc([N+](=O)[O-])cc2)N=C1c1ccccc1)N(C)C` are 28.2 µM and 37 µM. On the same counts, the results for `CCOC(=O)N1CCC(N2Cc3cccc(C(=O)Nc4ccc(N(CC)CC)cc4C)c3C2=O)CC1` are 35.3 µM and greater than 100 µM. Take `O=C1C2(Cl)C3(Cl)C4(Cl)C(Cl)(Cl)C5(Cl)C3(Cl)C1(Cl)C5(Cl)C24Cl` (stereo not given): the concentration for half-maximal inhibition (IC50) was 44.4 µM and the IC90 turned out to be 65.2 µM. For `CCn1c(C)c(C)c2cc(C(=O)Nc3cccc(Cl)c3)ccc21`, in that order: 36.2 µM and greater than 100 µM. `Nc1nc2ccccc2n1CCOc1ccccc1Cl`: the IC50 was 20.3 µM and the IC90 was 23.1 µM. On the same counts, the results for `CCOC(=O)CN(C#N)c1nc(N(C)C)nc(N(C)C)n1` are 12.8 µM and 14.6 µM. Take `CCCCC(=O)OCC(=O)N1N=C(c2c[nH]c3ccccc23)C(O)C1c1ccc(OC)cc1` (stereo not given): the IC50 was 22 µM and the 90% effect concentration (IC90) came out at 25.1 µM. Regarding `Cc1ccc(-c2noc(=O)n2CC(=O)c2ccc(Cl)cc2)cc1`, the IC90 is greater than 50 µM. For the compound `COc1ccc(C2c3[nH]c4ccccc4c3CCN2Cc2cccn2-c2ncccn2)cc1C` (stereo not given), the IC50 is 36.4 µM and the IC90 came to 47 µM.

As for `O=C(CCl)N1CCCC1c1ccc2c(c1)OCCO2` (stereo not given), the IC50 is 8.76 µM and the IC90 turned out to be 14.1 µM.

For the compound `COc1ccc(C2CC(c3cccs3)=Nc3ccccc3S2)cc1` (stereo not given), the IC50 was 41.9 µM and the IC90 was 50.9 µM. On the same counts, the results for `c1ccc2sc(Sc3ncnc4sccc34)nc2c1` are 11.4 µM and 12.9 µM. On the same counts, the results for `Cc1ccc(OCCN2CCN(c3ncnc4sc(C)c(C)c34)CC2)cc1` are 53.5 µM and 79.3 µM.
